Measured values: PubChem BioAssay AID330 (DTP/NCI, 2004)
Several values for one entry are separate records, joined by “and”; a condition that tells them apart may be missing. Identical values can stand only once. Inconclusive results and toxic doses are left out. Rule for the calls: active = survival T/C of 150% or more; inactive = T/C below 125% in these data.

Test system: P388 leukemia ip, CD2F1 mice, survival T/C
Test: NCI In Vivo Anticancer Drug Screen. Data for tumor model P388 Leukemia (intraperitoneal) in CD2F1 (CDF1) mice
Conditions: endpoint: median survival time, higher = longer survival
Outline: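 Mice carrying the transplanted tumor received test compound or vehicle. Survival was recorded in each group, and the value is the treated-group measurement divided by that of the vehicle-treated control group.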

[1] = dose: 50.0 mg/kg/injection, schedule: Q01DX009 (ip), vehicle: saline with Tween-80
[2] = dose: 100.0 mg/kg/injection, schedule: Q01DX009 (ip), vehicle: saline with Tween-80
[3] = dose: 200.0 mg/kg/injection, schedule: Q01DX009 (ip), vehicle: saline with Tween-80
[4] = dose: 400.0 mg/kg/injection, schedule: Q01DX009 (ip), vehicle: saline with Tween-80
[5] = dose: 60.0 mg/kg/injection, schedule: Q01DX005 (ip), vehicle: saline with Tween-80
[6] = dose: 120.0 mg/kg/injection, schedule: Q01DX005 (ip), vehicle: saline with Tween-80
[7] = dose: 240.0 mg/kg/injection, schedule: Q01DX005 (ip), vehicle: saline with Tween-80
[8] = dose: 50.0 mg/kg/injection, schedule: Q01DX005 (ip), vehicle: Klucel (hydroxypropylcellulose) (HPC)
[9] = dose: 200.0 mg/kg/injection, schedule: Q01DX005 (ip), vehicle: Klucel (hydroxypropylcellulose) (HPC)
[10] = dose: 100.0 mg/kg/injection, schedule: Q01DX005 (ip), vehicle: Klucel (hydroxypropylcellulose) (HPC)
[11] = dose: 60.0 mg/kg/injection, schedule: Q01DX005 (ip), vehicle: saline
[12] = dose: 120.0 mg/kg/injection, schedule: Q01DX005 (ip), vehicle: saline
[13] = dose: 240.0 mg/kg/injection, schedule: Q01DX005 (ip), vehicle: saline
[14] = dose: 25.0 mg/kg/injection, schedule: Q04DX003 (ip), vehicle: saline with Tween-80
[15] = dose: 50.0 mg/kg/injection, schedule: Q04DX003 (ip), vehicle: saline with Tween-80
[16] = dose: 100.0 mg/kg/injection, schedule: Q04DX003 (ip), vehicle: saline with Tween-80
[17] = dose: 200.0 mg/kg/injection, schedule: Q04DX003 (ip), vehicle: saline with Tween-80

Measured: T/C

Nc1nc(S)cc(=O)[nH]1
inactive: [1] 91 % of control | [2] 108 % of control | [3] 94 % of control | [4] 99 % of control

COc1nc2n[nH]nc2c(=O)n1C
inactive: [5] 104 % of control | [6] 102 % of control | [7] 101 % of control

O=C(OCC1N=C1c1ccccc1)c1ccc(Br)cc1 (stereo unspecified)
inactive: dose: 100.0 mg/kg/injection, schedule: Q01DX001 (ip), vehicle: suspension in saline 104 % of control | dose: 200.0 mg/kg/injection, schedule: Q01DX001 (ip), vehicle: suspension in saline 99 % of control | dose: 400.0 mg/kg/injection, schedule: Q01DX001 (ip), vehicle: suspension in saline 104 % of control

Clc1ccccc1C=Nc1ccccc1
inactive: [1] 121 % of control

CN(C)N=Nc1ccc(C(=O)NC(Cc2ccccc2)C(=O)O)cc1 (stereo unspecified)
inactive: dose: 12.5 mg/kg/injection, schedule: Q01DX005 (ip), vehicle: Klucel (hydroxypropylcellulose) (HPC) 100 % of control | dose: 25.0 mg/kg/injection, schedule: Q01DX005 (ip), vehicle: Klucel (hydroxypropylcellulose) (HPC) 101 % of control | [8] 98 % of control and 102 % of control | [9] 107 % of control

Cn1c(-c2ccccc2)c/c(=N\NS(C)(=O)=O)c2cc(S(=O)(=O)O)ccc21
inactive: [1] 96 % of control | [2] 91 % of control | [3] 98 % of control

N#Cc1cc(C23CCC(C2)N3)ccc1[N+](=O)[O-] (stereo unspecified)
inactive: dose: 100.0 mg/kg/injection, schedule: Q04DX003 (ip), vehicle: saline 105 % of control | dose: 200.0 mg/kg/injection, schedule: Q04DX003 (ip), vehicle: saline 91 % of control | dose: 400.0 mg/kg/injection, schedule: Q04DX003 (ip), vehicle: saline 92 % of control

CCCCCCCCC(O)C#CC(N)=O (stereo unspecified)
inactive: dose: 100.0 mg/kg/injection, schedule: Q01DX001 (ip), vehicle: saline with Tween-80 99 % of control | dose: 200.0 mg/kg/injection, schedule: Q01DX001 (ip), vehicle: saline with Tween-80 90 % of control

CCOC(=O)c1ccc(-n2c(C)nc3cc(Cl)ccc3c2=O)cc1
inactive: [1] 104 % of control | [2] 98 % of control | [3] 98 % of control

c1ccc(C2=NCN3CC23c2ccccc2)cc1 (stereo unspecified)
inactive: dose: 12.5 mg/kg/injection, schedule: Q01DX009 (ip), vehicle: saline with Tween-80 98 % of control | dose: 25.0 mg/kg/injection, schedule: Q01DX009 (ip), vehicle: saline with Tween-80 98 % of control | [1] 99 % of control | [2] 95 % of control

CSc1cc(SC)c(SC)nn1
inactive: [1] 106 % of control | [2] 109 % of control | [3] 98 % of control

CCOC(=O)Cn1cnc2cc(Cl)c([N+](=O)[O-])cc2c1=O
inactive: dose: 100.0 mg/kg/injection, schedule: Q04DX003 (ip), vehicle: Klucel (hydroxypropylcellulose) (HPC) 100 % of control and 110 % of control | dose: 200.0 mg/kg/injection, schedule: Q04DX003 (ip), vehicle: Klucel (hydroxypropylcellulose) (HPC) 101 % of control and 121 % of control | dose: 400.0 mg/kg/injection, schedule: Q04DX003 (ip), vehicle: Klucel (hydroxypropylcellulose) (HPC) 100 % of control | dose: 600.0 mg/kg/injection, schedule: Q04DX003 (ip), vehicle: Klucel (hydroxypropylcellulose) (HPC) 107 % of control

O=C(Nc1ccccc1)P(=S)(c1ccccc1)c1ccccc1
inactive: [8] 101 % of control and 112 % of control | [10] 104 % of control | [9] 101 % of control and 106 % of control

CCCCCCCC/C=C\CCCCCCCC(=O)OC
inactive: dose: 177.0 mg/kg/injection, schedule: Q01DX009 (ip), vehicle: saline with Tween-80 109 % of control | dose: 266.0 mg/kg/injection, schedule: Q01DX009 (ip), vehicle: saline with Tween-80 116 % of control | [4] 106 % of control | dose: 600.0 mg/kg/injection, schedule: Q01DX009 (ip), vehicle: saline with Tween-80 107 % of control

COc1cc(/C=C/C(=O)Sc2ccccc2)cc(OC)c1O
inactive: [5] 109 % of control | [6] 105 % of control | [7] 100 % of control

COc1ccc2c(c1)nc(/C(C(=O)C(=O)c1ccccc1)=C(\O)c1ccccc1)c(C)[n+]2[O-]
inactive: [11] 103 % of control | [12] 104 % of control | [13] 100 % of control

O=c1c2ccccc2c2ccccc2n1O
inactive: [14] 99 % of control | [15] 99 % of control | [16] 97 % of control | [17] 97 % of control

O=C(Nc1ccccc1C(=O)NCC1CC1)c1cccs1
inactive: [5] 106 % of control | [6] 100 % of control | [7] 99 % of control

Cc1cc(=O)c2c3c(ccc2[nH]1)Oc1ccccc1O3
inactive: dose: 50.0 mg/kg/injection, schedule: Q01DX005 (ip), vehicle: saline with Tween-80 101 % of control | dose: 100.0 mg/kg/injection, schedule: Q01DX005 (ip), vehicle: saline with Tween-80 101 % of control | dose: 200.0 mg/kg/injection, schedule: Q01DX005 (ip), vehicle: saline with Tween-80 100 % of control

CC(=O)NNC(=O)c1ccc2ccccc2n1
inactive: dose: 50.0 mg/kg/injection, schedule: Q01DX009 (ip), vehicle: saline sonified 100 % of control | dose: 100.0 mg/kg/injection, schedule: Q01DX009 (ip), vehicle: saline sonified 104 % of control

O=C(Nc1cccc(NC(=O)Nc2cccc(C3=NCCN3)c2)c1)Nc1cccc(C2=NCCN2)c1
inactive: dose: 90.0 mg/kg/injection, schedule: Q01DX010 (ip), vehicle: saline 100 % of control

O=C1CCSC(=S)N1c1ccc(Cl)c(C(F)(F)F)c1
inactive: dose: 25.0 mg/kg/injection, schedule: Q01DX009 (ip), vehicle: saline 101 % of control and 91 % of control | dose: 50.0 mg/kg/injection, schedule: Q01DX009 (ip), vehicle: saline 100 % of control and 106 % of control and 107 % of control | dose: 100.0 mg/kg/injection, schedule: Q01DX009 (ip), vehicle: saline 110 % of control and 118 % of control and 98 % of control | dose: 200.0 mg/kg/injection, schedule: Q01DX009 (ip), vehicle: saline 100 % of control and 119 % of control

Cc1cc(=O)n2[nH]c(-c3ccc(C(C)(C)C)cc3)cc2n1
inactive: [5] 111 % of control | [6] 109 % of control | [7] 93 % of control

CN1CN(c2ccc([N+](=O)[O-])cc2)N=N1
inactive: [8] 95 % of control | [10] 97 % of control | [9] 94 % of control

N#Cc1ccc(NC(=O)CCCC(=O)Nc2ccc(C#N)c(C#N)c2)cc1C#N
inactive: dose: 50.0 mg/kg/injection, schedule: Q01DX009 (ip), vehicle: Klucel (hydroxypropylcellulose) (HPC) 97 % of control | dose: 100.0 mg/kg/injection, schedule: Q01DX009 (ip), vehicle: Klucel (hydroxypropylcellulose) (HPC) 94 % of control | dose: 200.0 mg/kg/injection, schedule: Q01DX009 (ip), vehicle: Klucel (hydroxypropylcellulose) (HPC) 96 % of control

CN(c1ccccc1)c1cc(=O)nc2ccccn12
inactive: [11] 105 % of control | [12] 98 % of control | [13] 105 % of control

Cn1c(N)c(C(=S)N2CCOCC2)c(=O)n(C)c1=O
inactive: dose: 25.0 mg/kg/injection, schedule: Q04DX002 (ip), vehicle: saline with Tween-80 100 % of control | dose: 50.0 mg/kg/injection, schedule: Q04DX002 (ip), vehicle: saline with Tween-80 104 % of control | dose: 100.0 mg/kg/injection, schedule: Q04DX002 (ip), vehicle: saline with Tween-80 104 % of control

NC(=S)NC1OC(COC(=O)c2ccccc2)C(OC(=O)c2ccccc2)C1OC(=O)c1ccccc1 (stereo unspecified)
inactive: [14] 98 % of control | [15] 107 % of control | [16] 100 % of control | [17] 106 % of control
